What all share (assay type): cell-based
The target in assay [1] is T1, A2A receptor (Homo sapiens, UniProt P29274).
T1 construct: host or cells: HEK-293
The assay can be described thus: A2aR antagonism IC50, cAMP TR-FRET (Lance Ultra) in HEK-293 cells, NECA as agonist.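 Further: compounds tested from 10 µM down to 0.08 nM in buffer with Rolipram at room temperature, TR-FRET cAMP signal read 1 h after adding Eu-cAMP tracer and ULight anti-cAMP.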 As to conditions: A2AR IC50 (nM) (@5 nM NECA), HEK-293 cells expressing A2A receptor; agonist NECA 5 nM (EC90); inhibition of cAMP. In general terms: TR-FRET usually uses a lanthanide donor and a delayed reading to cut background.

The target of assay [2] is T1, A2A receptor. The experiment in a line: A2aR antagonism IC50, cAMP TR-FRET in HEK-293 cells, high concentration of adenosine (30 μM).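 Further: compounds added 10 min before adenosine, then 30 min stimulation at room temperature in buffer with 100 µM rolipram and 30 µM EHNA, signal read 1 h after detection reagents.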 As to conditions: HEK-293 cells expressing A2A receptor; agonist adenosine 30 μM; 2% HSA; inhibition of cAMP; read-out: A2AR IC50 (nM) (@30 μM Adenosine).
The target in another assay is T2, A2B receptor (Homo sapiens, UniProt P29275).
T2 sequence (P29275 1-332): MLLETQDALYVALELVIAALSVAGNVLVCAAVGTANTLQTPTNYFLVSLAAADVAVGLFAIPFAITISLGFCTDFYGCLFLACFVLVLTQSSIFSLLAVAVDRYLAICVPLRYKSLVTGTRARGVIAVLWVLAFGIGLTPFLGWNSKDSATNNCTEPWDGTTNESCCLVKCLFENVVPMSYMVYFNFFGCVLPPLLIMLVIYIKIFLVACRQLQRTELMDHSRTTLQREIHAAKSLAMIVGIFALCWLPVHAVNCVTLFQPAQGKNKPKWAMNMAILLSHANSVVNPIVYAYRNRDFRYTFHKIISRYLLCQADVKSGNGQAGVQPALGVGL
The assay can be described thus: A2bR antagonism IC50, cAMP TR-FRET (Lance Ultra) in HEK-293 cells, NECA as agonist. On the set-up: host or cells: HEK-293. As to conditions: HEK-293 cells expressing A2B receptor; agonist NECA 30 nM (EC90); inhibition of cAMP.

T1 sequence (P29274 whole entry): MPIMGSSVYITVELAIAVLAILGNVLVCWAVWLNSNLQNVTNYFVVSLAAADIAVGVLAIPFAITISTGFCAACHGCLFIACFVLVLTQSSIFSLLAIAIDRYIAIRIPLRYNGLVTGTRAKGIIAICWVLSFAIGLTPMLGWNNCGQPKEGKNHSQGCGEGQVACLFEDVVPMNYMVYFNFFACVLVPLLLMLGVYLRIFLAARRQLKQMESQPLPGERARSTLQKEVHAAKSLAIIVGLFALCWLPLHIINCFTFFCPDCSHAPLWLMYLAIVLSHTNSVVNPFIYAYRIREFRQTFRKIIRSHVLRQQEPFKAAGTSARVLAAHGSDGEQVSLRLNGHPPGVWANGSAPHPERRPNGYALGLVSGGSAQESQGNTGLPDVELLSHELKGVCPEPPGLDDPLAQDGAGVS

A word on the IC50: it is the concentration at which inhibition is half-maximal. On to `CCc1c(C(F)F)nn2c(N)c(C#N)c(NCCc3ccn(C(C)(C)CO)n3)nc12` [Example 48, 7-amino-2-(difluoromethyl)-3-ethyl-5-((2-(1-(1-hydroxy-2-methylpropan-2-yl)-1H-pyrazol-3-yl)ethyl)amino) pyrazolo[1,5-a]pyrimidine-6-carbonitrile], for which the IC50 at A2A receptor [1] is 2.2 nM; on A2A receptor [2] it was 7660 nM; on A2B receptor, 51 nM.
For `Cc1nn2c(N)c(C#N)c(NCCc3ccn(C(C)(C)CO)n3)nc2c1Cl` [Example 36, 7-amino-3-chloro-5-((2-(1-(1-hydroxy-2-methylpropan-2-yl)-1H-pyrazol-3-yl)ethyl)amino)-2-methylpyrazolo[1,5-a]pyrimidine-6-carbonitrile] the same measures were 0.8 nM, 250 nM and 22 nM.
As to `CCc1c(C)nn2c(N)c(C#N)c(NCCc3cccc(C(C)(C)CO)n3)nc12` [Example 52, 7-amino-3-ethyl-5-((2-(6-(1-hydroxy-2-methylpropan-2-yl)pyridin-2-yl)ethyl)amino)-2-methylpyrazolo[1,5-a] pyrimidine-6-carbonitrile], the IC50 at A2A receptor [1] was determined as 0.54 nM; at A2B receptor, 29.3 nM.
`CCc1c(C)nn2c(N)c(C#N)c(NCCc3ccn(CCO)n3)nc12` [Example 54, 7-amino-3-ethyl-5-((2-(1-(2-hydroxyethyl)-1H-pyrazol-3-yl)ethyl)amino)-2-methylpyrazolo[1,5-a]pyrimidine-6-carbonitrile]: the half-maximal inhibitory concentration (IC50) was found to be 0.74 nM at A2A receptor [1] and 5 nM at A2B receptor.
Taken in the same sequence, the figures for `Cc1cccc([C@H](C)Nc2nc3c(C)c(C)nn3c(N)c2C#N)n1` [Example 2, 7-amino-2,3-dimethyl-5-{[(1S)-1-(6-methylpyridin-2-yl)ethyl]amino}pyrazolo [1,5-a]pyrimidine-6-carbonitrile] were 2 nM and 547 nM.
For `Cc1nn2c(N)c(C#N)c(NCCc3cccc(C(C)(C)O)n3)nc2c1C` [Example 16, 7-amino-5-({2-[6-(2-hydroxypropan-2-yl)pyridin-2-yl]ethyl}amino)-2,3-dimethylpyrazolo[1,5-a]pyrimidine-6-carbonitrile] the same measures were 2 nM and 53 nM.
As to `CCc1c(C)nn2c(N)c(C#N)c(NC(C)Cc3ccccn3)nc12` (single isomer, unassigned) [Example 23, 7-Amino-3-ethyl-2-methyl-5-((1-(pyridin-2-yl)propan-2-yl)amino) pyrazolo[1,5-a]pyrimidine-6-carbonitrile], the IC50 on A2A receptor [1] came out at 11 nM; on A2B receptor it was 130 nM.
In the case of `Cc1cccc(CC(C)Nc2nc3c(C)c(C)nn3c(N)c2C#N)n1` (single isomer, unassigned) [Example 14, 7-amino-2,3-dimethyl-5-{[1-(6-methylpyridin-2-yl)propan-2-yl]amino}pyrazolo[1,5-a]pyrimidine-6-carbonitrile], the IC50 on A2A receptor [1] stood at 1 nM; at A2B receptor, 7 nM.
Taken in the same sequence, the figures for `Cc1ccc(F)c(CCNc2nc3c(C)c(C)nn3c(N)c2C#N)n1` [Example 41, 7-amino-5-((2-(3-fluoro-6-methylpyridin-2-yl)ethyl)amino)-2,3-dimethylpyrazolo[1,5-a]pyrimidine-6-carbonitrile] were 0.88 nM and 73 nM.
For `Cc1nn2c(N)c(C#N)c(NCCc3cccc(C(C)(C)CO)n3)nc2c1C` [Example 53, 7-amino-5-((2-(6-(1-hydroxy-2-methylpropan-2-yl)pyridine-2-yl)ethyl)amino)-2,3-dimethylpyrazolo[1,5-a]pyrimidine-6-carbonitrile] the same measures were 0.3 nM and 27 nM.
Taken in the same sequence, the figures for `Cc1cccc(CCNc2nc3c(CC4CC4)c(C)nn3c(N)c2C#N)n1` [Example 26, 7-amino-3-(cyclopropylmethyl)-2-methyl-5-((2-(6-methylpyridin-2-yl)ethyl)amino) pyrazolo[1,5-a]pyrimidine-6-carbonitrile] were 2.9 nM and 0.83 nM.
Turning to `CCc1c(C)nn2c(N)c(C#N)c(N[C@@H](C)c3cccc(C)n3)nc12` [Example 5, (S)-7-Amino-3-ethyl-2-methyl-5-((1-(6-methylpyridin-2-yl)ethyl)amino) pyrazolo [1,5-a] pyrimidine-6-carbonitrile], the IC50 at A2A receptor [1] stood at 0.15 nM; on A2B receptor, 0.87 nM.
For `Cc1cccc(CN(C)c2nc3c(C)c(C)nn3c(N)c2C#N)n1` [Example 8, 7-amino-2,3-dimethyl-5-{methyl[(6-methylpyridin-2-yl)methyl]amino}pyrazolo [1,5-a] pyrimidine-6-carbonitrile] the same measures were 46 nM and 1680 nM.
For `CCc1c(C)nn2c(N)c(C#N)c(NCCc3cccc(C(C)(C)O)n3)nc12` [Example 25, 7-amino-3-ethyl-5-({2-[6-(2-hydroxypropan-2-yl)pyridin-2-yl]ethyl}amino)-2-methylpyrazolo[1,5-a]pyrimidine-6-carbonitrile] the same measures were 0.2 nM and 14 nM.
Turning to `CCc1c(C)nn2c(N)c(C#N)c(NCCc3ccc(F)cn3)nc12` [Example 21, 7-Amino-3-ethyl-5-((2-(5-fluoropyridin-2-yl)ethyl)amino)-2-methylpyrazolo[1,5-a]pyrimidine-6-carbonitrile], the IC50 came out at 3.9 nM at A2A receptor [1] and 13 nM on A2B receptor.
For `CCc1nn2c(N)c(C#N)c(NCCc3cccc(C)n3)nc2c1C` [Example 42, 7-amino-2-ethyl-3-methyl-5-((2-(6-methylpyridin-2-yl)ethyl)amino) pyrazolo[1,5-a]pyrimidine-6-carbonitrile] the same measures were 0.88 nM and 76 nM.
Taken in the same sequence, the figures for `Cc1cccc(CCNc2nc3c(C(C)C)c(C)nn3c(N)c2C#N)n1` [Example 28, 7-amino-3-(isopropyl)-2-methyl-5-((2-(6-methylpyridin-2-yl)ethyl)amino) pyrazolo[1,5-a]pyrimidine-6-carbonitrile] were 31 nM and 17 nM.
Taken in the same sequence, the figures for `CCc1cccc(CNc2nc3c(C)c(C)nn3c(N)c2C#N)n1` [Example 7, 7-amino-5-{[(6-ethylpyridin-2-yl)methyl]amino}-2,3-dimethylpyrazolo[1,5-a] pyrimidine-6-carbonitrile] were 0.59 nM and > 3000 nM.
Consider `CCc1c(C)nn2c(N)c(C#N)c(N[C@@H](C)c3ccccn3)nc12` [Example 4, (S)-7-Amino-3-ethyl-2-methyl-5-((1-(pyridin-2-yl)ethyl)amino) pyrazolo[1,5-a] pyrimidine-6-carbonitrile], for which the half-maximal inhibitory concentration (IC50) worked out at 25 nM at A2A receptor [1] and 1370 nM on A2B receptor.
Consider `Cc1nn2c(N)c(C#N)c(NCCc3ccc(F)cn3)nc2c1C` [Example 11, 7-amino-5-((2-(5-fluoropyridin-2-yl)ethyl)amino)-2,3-dimethylpyrazolo[1,5-a]pyrimidine-6-carbonitrile], for which the values for the IC50 at A2A receptor [1] and on A2B receptor were 6.8 nM and 43 nM, respectively.
Taken in the same sequence, the figures for `Cc1nn2c(N)c(C#N)c(NCCc3cccc(CO)n3)nc2c1C` [Example 44, 7-amino-5-((2-(6-(hydroxymethyl)pyridin-2-yl)ethyl)amino)-2,3-dimethylpyrazolo[1,5-a]pyrimidine-6-carbonitrile] were 1.3 nM and 2.3 nM.
Taken in the same sequence, the figures for `CCc1c(C)nn2c(N)c(C#N)c(NCCc3nn(C(C)(C)CO)cc3F)nc12` [Example 62] were 5 nM and 42 nM.
For `CCc1c(C(F)F)nn2c(N)c(C#N)c(NCCc3cccc(CO)n3)nc12` [Example 56, 7-amino-2-(difluoromethyl)-3-ethyl-5-((2-(6-(hydroxymethyl)pyridine-2-yl)ethyl)amino) pyrazolo[1,5-a] pyrimidine-6-carbonitrile], the figures for the IC50 on A2A receptor [1] and on A2B receptor were 3.3 nM and 11 nM, respectively.
Consider `Cc1nn2c(N)c(C#N)c(NCc3ccn(C(C)(C)CO)n3)nc2c1C` [Example 57, 7-amino-5-(((1-(1-hydroxy-2-methylpropan-2-yl)-1H-pyrazol-3-yl)methyl)amino)-2,3-dimethylpyrazolo[1,5-a]pyrimidine-6-carbonitrile], for which the half-inhibitory concentration (IC50) was determined as 13 nM on A2A receptor [1] and 100 nM on A2B receptor.
As for `Cc1nn2c(N)c(C#N)c(NCCc3ccn(CCO)n3)nc2c1Cl` [Example 35], the concentration for half-maximal inhibition (IC50) on A2A receptor [1] turned out to be 0.92 nM; on A2B receptor it was 16 nM.
For `CCn1ccc(CCNc2nc3c(C)c(C)nn3c(N)c2C#N)n1` [Example 29, 7-amino-5-{[2-(1-ethyl-1H-pyrazol-3-yl)ethyl]amino}-2,3-dimethylpyrazolo[1,5-a]pyrimidine-6-carbonitrile], the half-inhibitory concentration (IC50) at A2A receptor [1] is 1 nM; at A2B receptor, 18 nM.
Taken in the same sequence, the figures for `CCc1c(C)nn2c(N)c(C#N)c(NCCc3ccc(C)cn3)nc12` [Example 18, 7-Amino-3-ethyl-2-methyl-5-((2-(5-methylpyridin-2-yl)ethyl)amino) pyrazolo[1,5-a]pyrimidine-6-carbonitrile] were 5.5 nM and 9.5 nM.

The values above are taken from patent publication US12577247B2 (BUGWORKS RESEARCH, INC., priority 2021, dated 2026).
